From US20230025435A1, “COMPOSITIONS AND METHODS FOR INCREASING CELLULAR VITALITY AND LONGEVITY AND DECREASING MOLECULAR AGEING” (JUVN3 Holdings, LLC, priority 2020, published 2023)

Tests used:
Assay type in all cases: cell-based
[1] = test system: C2C12 cells; experiment: Cellular oxidative stress (4HNE assay) in C2C12 cells with H2O2 (FIG. 6C); conditions: 24 hours with concomitant 400 uM H2O2, BHB 30 ug/mL
Method: (§1) Treatments and cells. 6-hour and 24-hour cell culture treatments were with one of the following compounds: 1. Control or “vehicle” (DMSO+phosphate-buffered saline only); 2. Niagen® (nicotinamide riboside (NR)(5 μg/mL); 3. BHB (beta hydroxybutyrate) (30 ug/mL); 4. CBD (cannabidiol) (5 ug/mL); 5. Olive leaf (5 ug/mL); 6. Dynamine (1 ug/mL); 7. Selenium (2 ug/mL); 8. Tributyrin (5 ug/mL)
(§2) Treatment materials and methods. C2C12 cells were treated with compounds 1-8 as listed above for 6 hours without hydrogen peroxide (H2O2) (termed “unperturbed cells” throughout); or cells were treated with compounds 1-8 above for 24 hours with a concomitant 400 uM hydrogen peroxide (H2O2).
Oxidative stress was assessed using the 4HNE assay which is a product of cellular lipid oxidation (see e.g., Am J Physiol Cell Physiol. 2016 Oct. 1; 311(4): C537-C543).

[2] = test system: C2C12 cells; experiment: Autophagy flux (LC3II/I ratio) in C2C12 cells co-incubated with H2O2 (FIG. 6A); conditions: 24 hours with concomitant 400 uM H2O2, BHB 30 ug/mL, CBD 5 ug/mL, selenium 2 ug/mL
Method: as §1, §2
The C2C12 line resembles mature muscle cells given that they are multinucleated and are past the rapid growth/proliferation phase.
Autophagy flux (or activity) was assessed by assaying the LC3II/I ratio. This assay has been deemed the “gold standard” in autophagy monitoring (see e.g., Autophagy, 2007 November-December; 3(6):542-5).

[3] = test system: C2C12 cells; experiment: Total antioxidant capacity (Trolox equivalent antioxidant capacity, TEAC) in C2C12 cells with H2O2 (FIG. 5B); conditions: 24 hours with concomitant 400 uM H2O2, selenium 2 ug/mL, tributyrin 5 ug/mL
Method: Treatments and cells. 6-hour and 24-hour cell culture treatments were with one of the following compounds: 1. Control or “vehicle” (DMSO+phosphate-buffered saline only); 2. […]® (nicotinamide riboside (NR)(5 μg/mL); 3. BHB (beta hydroxybutyrate) (30 ug/mL); 4. CBD (cannabidiol) (5 ug/mL); 5. Olive leaf (5 ug/mL); 6. Dynamine (1 ug/mL); 7. […] Tributyrin (5 ug/mL) Treatment materials and methods. C2C12 cells were treated with compounds 1-8 as listed above for 6 hours without hydrogen peroxide (H2O2) (termed “unperturbed cells” throughout); or cells were treated with compounds 1-8 above for 24 hours with a concomitant 400 uM hydrogen peroxide (H2O2). Total antioxidant capacity was assessed using a Trolox equivalent antioxidant capacity (TEAC) assay.

SMILES	cellular oxidative stress (4HNE) [1]	autophagy (LC3II/I ratio) [2]	total antioxidant capacity (Trolox) [3]	total antioxidant capacity (Trolox) ([3]; listed as Selenium)	total antioxidant capacity (Trolox) ([3]; listed as Tributyrin)
CC(O)CC(=O)O (stereo not drawn) [BHB, beta hydroxybutyrate]	decrease cellular oxidative stress	increased autophagy			
C=C(C)[C@@H]1CCC(C)=C[C@H]1c1c(O)cc(CCCCC)cc1O [CBD, cannabidiol]		increased autophagy			
[Se] [selenium, Selenium]		increased autophagy	increase (e.g., restore) total antioxidant activity	increase or restore antioxidant capacity	
CCCC(=O)OCC(COC(=O)CCC)OC(=O)CCC [tributyrin, Tributyrin]			increase (e.g., restore) total antioxidant activity		increase or restore antioxidant capacity
